Source: patent US10760052B2, “Method of inhibiting tau phosphorylation” (priority 2012, dated 2020)

Tests used:
α7nAChR (Aβ42 binding) = experiment: FITC-Aβ42 binding to biotinylated α7nAChR-containing SK-N-MC cell fragments; design: species or system human; details: added simultaneously, 30° C., 30 minutes
FLNA-α7nAChR association = experiment: FLNA association with α7nAChR in organotypic frontocortical slice cultures; type: cell-based, rat; details: 100 nM Aβ42, 16 hours, compound added simultaneously
Method: (§1) Tissue was harvested and solubilized, and a specific antibody against FLNA was used to immunoprecipitate FLNA and associated proteins. The FLNA immunoprecipitate was size-fractionated using SDS-PAGE, transferred and probed with specific antibodies directed against each of the following receptors: α7nAChR, TLR4, IR and MOR.
(§2) Rat brain slice organotypic culture methods were modified from those published previously. [Adamchik et al., Brain Res Brain Res Protoc 5:153-158 (2000).] FCX slices ([…]) were transferred to sterile, porous Millicell-CM inserts (0.4 μm). Each culture insert unit contained two brain slices and was placed into individual wells of a 12-well culture tray in 2 ml medium: 50% MEM with Earl's salts, 2 mM L-glutamine, 25% Earl's balanced salt solution, 6.5 g/l D-glucose, 20% fetal bovine serum (FBS), 5% horse serum, 25 mM HEPES buffer, pH 7.2, and […]. […]
(§3) The level of FLNA-associated α7nAChRs was determined using a co-immunoprecipitation/Western blotting method as described previously. […] The levels of FLNA-associated α7nAChR, TLR4, IR and MOR were assessed by Western blotting using specific antibodies directed against the respective proteins and the blot stripped and re-probed for FLNA for immunoprecipitation/loading control.

FLNA-TLR4 association = experiment: FLNA association with TLR4 in organotypic frontocortical slice cultures; type: cell-based, rat; details: 100 nM Aβ42, 16 hours, compound added simultaneously
Method: as §1, §2, §3

[1] = tested on: tau (pSer202, pThr231, pThr181); experiment: Tau phosphorylation in organotypic frontocortical slice cultures; type: cell-based, rat; details: C0105 0.1, 1, 10 nM; C0114 1, 10 nM; simultaneous with Aβ42
Method: On the day of study, medium was removed, the brain slices rinsed and incubated in 0.1% FBS-containing medium for 4 hours at 36° C. in 5% CO2.
The levels of phosphorylated tau (pSer202tau, pThr231tau and pThr181tau) as well as total tau precipitated (loading controls) are assessed by Western blotting using specific antibodies directed against each of the phosphoepitopes and the anti-tau, respectively.

α7nAChR = type: cell-based, rat
NMDAR [2] = type: cell-based, rat; details: slice cultures, 0.1 μM Aβ42
NMDAR [3] = experiment: Levels of signaling molecules associated with NMDAR (NR1) in slice cultures; type: cell-based, rat; details: 0.1 μM Aβ42
Method: NMDAR activation and signaling was initiated by incubation of 6 slices with either 0.3 mM Mg^2+ containing KR (LMKR; basal) or LMKR containing 10 μM NMDA and 1 μM glycine at 37° C. for 30 minutes.
Ligand stimulation was terminated by the addition of 1 ml of ice-cold Ca^2+-free K-R containing mixture of protein phosphatase inhibitors, 0.5 mM EGTA and 0.1 mM EDTA. Brain slices were harvested by a brief centrifugation and were homogenized in 0.25 ml of ice-cold immunoprecipitation buffer. The homogenates were centrifuged at 1000×g for 5 minutes (4° C.) and the supernatant (post-mitochondrial fraction) was sonicated for 10 seconds on ice.
The resultant lysates were cleared by centrifugation at 50,000×g for 5 minutes and diluted with 0.75 ml of immunoprecipitation buffer. Protein concentrations were measured by Bradford method (Bio-Rad).
To determine the association of NMDARs with PSD-95, as well as NMDAR signaling, the levels of NMDAR subunits, PSD-95 and NMDAR-associated signaling molecules were measured in anti-NR1 immunoprecipitates. In these studies, brain slice lysates (100 μg) were immunoprecipitated overnight at 4° C. with 2 μg of immobilized anti-NR1 onto covalently conjugated protein A-agarose beads (Pierce-ENDOGEN). […]

insulin receptor (IR) = experiment: IR activation and signaling (pY1150/1151 IRβ, IRS-1) in slice cultures; type: cell-based, rat; details: insulin stimulation
Method: IR activation and signaling was initiated by incubation of 6 slices that were further chopped horizontally into 100 μm (100 μm×200 μm×3 mm) with either KR (basal) or KR containing 1 nM insulin at 37° C. for 30 minutes. […] Ligand stimulation was terminated by the addition of 1 ml of ice-cold Ca^2+-free K-R containing mixture of protein phosphatase inhibitors, 0.5 mM EGTA and 0.1 mM EDTA. Brain slices were harvested by a brief centrifugation and were homogenized in 0.25 ml of ice-cold immunoprecipitation buffer. The homogenates were centrifuged at 1000×g for 5 minutes (4° C.) and the supernatant (post-mitochondrial fraction) was sonicated for 10 seconds on ice. […] The resultant lysates were then cleared by centrifugation at 50,000×g for 5 minutes and diluted with 0.75 ml of immunoprecipitation buffer. Protein concentrations were measured by Bradford method (Bio-Rad).
In these experiments, brain slice lysates (100 μg) were immunoprecipitated overnight (about 18 hours) at 4° C. with 2 μg of immobilized anti-IRβ onto covalently conjugated protein A-agarose beads (Pierce-ENDOGEN). […]

[4] = tested on: voltage-gated Ca2+ channel mediated Ca2+ influx; type: cell-based, rat; details: slice cultures
α7nAChR-FLNA complex = biological target: T1, α7nAChR-FLNA complex (Rattus norvegicus, UniProt A0A8I5ZV49); experiment: Aβ42-induced α7nAChR-FLNA association in rat frontal cortical synaptosomes (co-immunoprecipitation/Western blot); type: cell-based; details: 1 or 10 nM compound, simultaneously or 10 minutes prior to Aβ42 (0.1 μM)
T1 construct: from tissue; host or cells: rat frontal cortex synaptosomes
Text: The α7nAChR-FLNA complexes in the solubilized synaptosomes were immunoprecipitated with immobilized anti-FLNA and the α7nAChR and FLNA levels in the anti-FLNA immunoprecipitates determined by Western blotting (FIG. 2A) and quantified by densitometry (FIG. 2B). n=3. […] The letter designation “M” that accompanies many of the “C-series” compounds is omitted from FIG. 2, the remaining figures and most discussions of the figures and compounds hereinafter for ease in expression. Structural formulas of the compounds used in this and the other figures are provided hereinafter. […]

[5] = tested on: tau protein phosphorylated at S202, T231 and T181; experiment: Aβ42-induced tau phosphorylation in rat frontal cortical synaptosomes; type: cell-based; details: 1 or 10 nM compound, simultaneously or 10-minute pretreatment; Aβ42 0.1 μM
Method: FIG. 4 in four panels as FIGS. 4A-4D, illustrates that FLNA-binding compounds reduce tau phosphorylation at all three phosphorylation sites. […] The three phosphoepitopes of tau were detected in immunoprecipitates using specific antibodies. […] Immunoprecipitates were determined by Western blotting (FIGS. 4A-4C) and quantified by densitometry (FIG. 4D).
(§4) FIG. 42, also in two panels, FIGS. 42A and 42B, illustrates that FLNA-binding compounds reduce tau phosphorylation at all three phosphorylation sites using the compounds and concentrations of FIG. 41 using immunoprecipitation and Western blotting. […] The three phosphoepitopes of tau were detected in immunoprecipitates using specific antibodies.
as §4, with “44,” for “42,”, “FIG. 44A” for “FIGS. 42A”, “FIG. 44B,” for “42B,”, “43” for “41”, “antibodies. Aβ42 strongly promotes tau phosphorylation at all three sites.” for “antibodies.”
as §4, with “46,” for “42,”, “FIG. 46A” for “FIGS. 42A”, “FIG. 46B,” for “42B,”, “45” for “41”, “antibodies. Aβ42 strongly promotes tau phosphorylation at all three sites.” for “antibodies.”
The three primary phosphorylation sites on tau protein were examined for their phosphorylation levels compared to total tau protein content. Tau, phosphorylated at these three sites, is a constituent of NFTs. Consistent with effects on FLNA-α7nAChR association, and ERK2 activation, all of the FLNA-binding compounds assayed, with 10 minute pre-incubation, decreased Aβ42-induced phosphorylation of tau at all three sites (FIG. 4).

T1 sequence (A0A8I5ZV49 entry or part of it, one chain of several): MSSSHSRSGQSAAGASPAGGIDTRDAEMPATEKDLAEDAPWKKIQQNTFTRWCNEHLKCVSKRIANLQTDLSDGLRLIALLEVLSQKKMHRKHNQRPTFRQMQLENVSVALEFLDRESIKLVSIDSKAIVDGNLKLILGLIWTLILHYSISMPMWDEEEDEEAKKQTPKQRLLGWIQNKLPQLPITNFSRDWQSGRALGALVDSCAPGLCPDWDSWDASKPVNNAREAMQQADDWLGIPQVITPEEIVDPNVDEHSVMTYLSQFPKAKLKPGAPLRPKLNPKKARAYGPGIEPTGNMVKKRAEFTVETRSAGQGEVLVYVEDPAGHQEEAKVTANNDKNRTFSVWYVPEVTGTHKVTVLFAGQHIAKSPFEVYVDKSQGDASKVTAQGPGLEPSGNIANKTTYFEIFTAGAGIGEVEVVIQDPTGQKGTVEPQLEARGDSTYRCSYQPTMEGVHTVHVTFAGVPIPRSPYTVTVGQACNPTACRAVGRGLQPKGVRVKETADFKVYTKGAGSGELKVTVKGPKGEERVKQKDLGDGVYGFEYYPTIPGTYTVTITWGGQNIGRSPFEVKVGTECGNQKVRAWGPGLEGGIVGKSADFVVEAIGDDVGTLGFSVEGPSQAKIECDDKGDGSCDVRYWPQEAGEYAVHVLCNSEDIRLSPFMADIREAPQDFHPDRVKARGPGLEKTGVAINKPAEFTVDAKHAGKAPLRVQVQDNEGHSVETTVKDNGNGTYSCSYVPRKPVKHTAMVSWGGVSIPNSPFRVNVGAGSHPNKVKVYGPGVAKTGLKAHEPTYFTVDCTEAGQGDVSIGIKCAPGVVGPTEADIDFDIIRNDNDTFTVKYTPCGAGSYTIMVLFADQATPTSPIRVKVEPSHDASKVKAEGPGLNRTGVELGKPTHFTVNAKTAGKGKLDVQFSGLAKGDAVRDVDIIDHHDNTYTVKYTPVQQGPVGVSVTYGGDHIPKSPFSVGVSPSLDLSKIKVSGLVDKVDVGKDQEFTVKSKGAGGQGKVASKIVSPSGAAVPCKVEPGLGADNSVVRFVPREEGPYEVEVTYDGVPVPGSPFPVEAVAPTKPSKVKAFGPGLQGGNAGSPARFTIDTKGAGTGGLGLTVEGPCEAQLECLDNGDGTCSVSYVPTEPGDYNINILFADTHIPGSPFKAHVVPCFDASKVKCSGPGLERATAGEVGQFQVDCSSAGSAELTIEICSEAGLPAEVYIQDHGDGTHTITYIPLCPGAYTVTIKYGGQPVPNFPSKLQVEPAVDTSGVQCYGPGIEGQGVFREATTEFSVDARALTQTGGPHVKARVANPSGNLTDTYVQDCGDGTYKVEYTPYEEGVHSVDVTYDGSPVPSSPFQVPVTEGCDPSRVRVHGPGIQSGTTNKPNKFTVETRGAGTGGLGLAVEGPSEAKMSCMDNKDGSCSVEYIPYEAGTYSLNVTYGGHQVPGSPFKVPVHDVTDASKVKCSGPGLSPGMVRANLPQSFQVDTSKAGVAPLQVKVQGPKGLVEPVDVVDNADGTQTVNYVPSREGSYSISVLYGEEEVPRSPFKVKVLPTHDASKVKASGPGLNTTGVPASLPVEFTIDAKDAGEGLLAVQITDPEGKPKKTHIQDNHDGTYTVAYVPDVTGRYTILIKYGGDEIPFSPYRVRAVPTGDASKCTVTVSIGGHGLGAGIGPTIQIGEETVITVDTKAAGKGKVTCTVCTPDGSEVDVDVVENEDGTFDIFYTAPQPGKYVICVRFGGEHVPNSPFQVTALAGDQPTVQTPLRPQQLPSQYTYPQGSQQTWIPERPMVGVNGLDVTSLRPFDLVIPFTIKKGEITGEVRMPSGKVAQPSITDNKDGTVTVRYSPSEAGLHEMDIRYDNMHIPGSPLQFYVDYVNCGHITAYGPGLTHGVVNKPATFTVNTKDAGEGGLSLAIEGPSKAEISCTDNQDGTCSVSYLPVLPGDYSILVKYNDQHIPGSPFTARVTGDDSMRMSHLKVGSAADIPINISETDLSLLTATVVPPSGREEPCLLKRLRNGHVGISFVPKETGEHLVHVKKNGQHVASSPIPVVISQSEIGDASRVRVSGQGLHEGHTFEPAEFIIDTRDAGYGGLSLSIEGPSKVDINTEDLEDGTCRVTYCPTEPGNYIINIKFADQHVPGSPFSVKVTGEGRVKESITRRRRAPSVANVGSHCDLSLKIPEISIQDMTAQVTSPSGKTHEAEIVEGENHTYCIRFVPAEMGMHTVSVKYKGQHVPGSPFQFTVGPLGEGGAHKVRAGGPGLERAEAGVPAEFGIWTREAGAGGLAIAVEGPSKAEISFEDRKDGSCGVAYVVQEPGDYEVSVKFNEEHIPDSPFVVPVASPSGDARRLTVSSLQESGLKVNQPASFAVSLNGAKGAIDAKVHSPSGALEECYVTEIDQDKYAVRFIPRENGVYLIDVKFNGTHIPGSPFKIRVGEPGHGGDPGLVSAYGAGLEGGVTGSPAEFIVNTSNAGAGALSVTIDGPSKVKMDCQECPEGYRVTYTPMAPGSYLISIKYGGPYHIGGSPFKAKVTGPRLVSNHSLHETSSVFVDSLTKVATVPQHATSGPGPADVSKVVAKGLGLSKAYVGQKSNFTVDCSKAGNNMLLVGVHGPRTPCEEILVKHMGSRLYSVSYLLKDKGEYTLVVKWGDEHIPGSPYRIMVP

O=C1CNC2(CCNCC2)N1Cc1ccccc1 [Compound C0114]
Inhibition of FITC-Aβ42 binding (α7nAChR (Aβ42 binding); 0.1 nM compound): 27.8±3.3% | Inhibition of FITC-Aβ42 binding (α7nAChR (Aβ42 binding); 1 nM compound): 40.0±2.1% | Inhibition of FITC-Aβ42 binding (α7nAChR (Aβ42 binding); 10 nM compound): 53.4±3.6% | Aβ42-induced increase in FLNA-α7nAChR association (FLNA-α7nAChR association): reduced the FLNA-α7AchR association at both concentrations | Aβ42-induced increase in FLNA-TLR4 association (FLNA-TLR4 association): reduced the FLNA-α7AchR association at both concentrations and the FLNA-TLR4 association at 10 nM | Aβ42-induced tau phosphorylation [1]: reduced tau phosphorylation at all three phosphorylation sites | Aβ42-induced impairment in α7nAChR function (calcium influx after PNU282987) (α7nAChR): restored functioning of this receptor | Aβ42-induced impairment in NMDAR function (calcium influx after NMDA and glycine) (NMDAR [2]): significantly restoring NMDAR function | Levels of six signaling molecules associated with NR1 after NMDA and glycine (NMDAR [3]): fully restored function | Aβ42-induced IR signaling impairments (IRS-1 association, pY1150/1151 IRβ) (insulin receptor (IR)): normalized the signaling impairments | Aβ42-induced reduction of K+-evoked calcium influx [4]: completely reversed

O=C(Nc1ccccc1)N1CCC2(CC1)NCC(=O)N2Cc1ccccc1 [Compound C]
α7nAChR-FLNA association (ratio α7nAChR/FLNA) (α7nAChR-FLNA complex): statistically different from Aβ42 alone | Aβ42-induced tau phosphorylation at S202, T231 and T181 [5]: did not provide a statistically significant result at two phosphorylation positions when simultaneously administered
